Laboratory results published in patent publication US20190008983A1, “EXTRACELLULAR DRUG CONJUGATES TARGETING CD20” (priority 2015, published 2019).
Where two headings read alike, the source gives them in different places.

Tests used:
[1] = test system: CD20 positive cell line Ramos; assay: Cell proliferation/cytotoxicity assay (CellTiter-Glo) on Ramos cells; format: cell-based, Human; settings: for EC50 / % viab., Ramos: 72 hours incubation; for EC50: CellTiter-Glo, Tables 1-2, read-out: EC50 in picoM, Ramos; for % viab., Ramos: figure in brackets after EC50
Protocol: (§1) These cell lines are the Ramos (Human Burkitt's lymphoma) and SUDHL4 (Non-Hodgkin lymphoma) cell lines. […] Cell viability was then analyzed using the CellTiter-Glo luminescent cell viability assay and standard package insert protocol of the manufacturer (Promega, Madison, Wis.).

[2] = test system: CD20 positive cell line SUDHL4; assay: Cell proliferation/cytotoxicity assay (CellTiter-Glo) on SUDHL4 cells; format: cell-based, Human; settings: for EC50: read-out: EC50 in picoM, SUDHL4; for % viab., SUDHL4: figure in brackets after EC50
Protocol: as §1

[3] = 72 hours incubation, CellTiter-Glo, Tables 1-2

| SMILES | EC50 [1] | EC50 [2, 3] | also measured |
| --- | --- | --- | --- |
| CN(CCCN)CCCNC(=O)O[C@H]1CC[C@@]2(C)[C@H](CC[C@@H]3[C@@H]2CC[C@]2(C)[C@H](c4ccc(=O)oc4)CC[C@]32O)C1 [CEN-372] | 3.6 nM | 4.4 nM |  |
| C[C@]1(OC(=O)NCCCN2CCN(CCCN)CC2)CC[C@@]2(C)[C@H](CC[C@@H]3[C@@H]2CC[C@]2(C)[C@@](C)(C4=CC(=O)OC4)CC[C@]32O)C1 [CEN-381] | > 50 nM | > 50 nM |  |
| C[C@]12CC[C@H](O)C=C1CC[C@@H]1[C@@H]2CC[C@]2(C)[C@@H](c3ccc(=O)oc3)CC[C@]12O [Scillarenin, reference compound] |  |  | EC50 ([2]; Homo sapiens, SU-DHL-4, 72 hours incubation, CellTiter-Glo, Tables 1-2): 18 nM |
| C[C@]12CC[C@H](OC(=O)NCCCNCCCN)C[C@H]1CC[C@@H]1[C@@H]2CC[C@]2(C)[C@H](c3ccc(=O)oc3)CC[C@]12O [CEN-373] | 4 nM | 5.9 nM |  |
| C[C@]12CC[C@H](O)C[C@H]1CC[C@@H]1[C@@H]2CC[C@]2(C)[C@@H](c3ccc(=O)oc3)CC[C@]12O [Bufalin, reference compound] |  |  | EC50 ([2]; Homo sapiens, SU-DHL-4, 72 h): 16 nM |
| C[C@]12CC[C@H](OC3OC[C@H](N)[C@@H](O)[C@@H]3O)C=C1CC[C@@H]1[C@@H]2CC[C@]2(C)[C@@H](c3ccc(=O)oc3)CC[C@]12O (stereo partly shown) [CEN09-106] |  |  | % viab., Ramos [1]: 0%; activity on Ramos cells in FIG. 8 study ([1]; in the absence of complement, FIG. 8): significant but much less potent activity; % viab., SUDHL4 ([2]; 72 hours incubation): 0% |
| C[C@]12CC[C@H](O)C[C@H]1CC[C@@H]1[C@@H]2CC[C@]2(C)[C@@H](C3=CC(=O)OC3)CC[C@]12O [Digitoxigenin, reference compound] |  |  | EC50 ([2]; Homo sapiens, SU-DHL-4, 72 h): > 50 nM |
| CC12CCC(OC(=O)N3CCNCC3)CC1CCC1C2CCC2(C)C(c3ccc(=O)oc3)CCC12O (stereo not shown) [CEN-371] | 7.81 nM | 11 nM | % viab., Ramos [1]: 0%; % viab., SUDHL4 ([2]; 72 hours incubation): 0% |
